# Reference: patent publication US8729091B2, “4-phenoxy-nicotinamide or 4-phenoxy-pyrimidine-5-carboxamide compounds” (Hoffmann-La Roche Inc., priority 2010, dated 2014)
# Target: T1, human GPBAR1 receptor (Homo sapiens, UniProt Q8TDU6)
# T1 construct: expressed in transfected cells
# T1 sequence (Q8TDU6 1-330): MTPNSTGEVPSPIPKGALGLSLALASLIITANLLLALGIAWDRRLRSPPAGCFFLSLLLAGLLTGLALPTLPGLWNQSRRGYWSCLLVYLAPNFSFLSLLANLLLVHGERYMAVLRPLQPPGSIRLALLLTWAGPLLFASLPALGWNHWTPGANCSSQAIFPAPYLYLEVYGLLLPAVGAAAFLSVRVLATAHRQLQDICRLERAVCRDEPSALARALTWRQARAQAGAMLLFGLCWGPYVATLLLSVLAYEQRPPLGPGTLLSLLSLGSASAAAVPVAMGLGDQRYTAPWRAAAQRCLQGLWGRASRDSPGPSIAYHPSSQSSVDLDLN
# Test: functional cAMP assay in CHO-dhfr(minus) cells expressing human GPBAR1 receptors
# Format: cell-based
# Conditions: cAMP increase (TR-FRET) in CHO-dhfr(minus) cells expressing human GPBAR1; compounds incubated 30 min at 30° C.
# Method: The final clone was verified by DNA sequence analysis. The plasmid was transfected into CHO cells deficient in dihydrofolate reductase activity (CHO-dhfr−) using Lipofectamine plus (Invitrogen). Clones were isolated in limited dilution conditions and identified by activities in the cAMP assay using lithocholic acid as agonist.
# The growth medium was exchanged with Krebs Ringer Bicarbonate buffer with 1 mM IBMX and incubated at 30° C. for 30 min. Compounds were added to a final assay volume of 100 μl and incubated for 30 min at 30° C. […] The time-resolved energy transfer is measured by a TRF reader (Evotec Technologies GmbH, Hamburg Germany), equipped with a ND:YAG laser as excitation source.
# EC50 values were determined using Activity Base analysis (ID Business Solution, Limited). […] Specificity for GPBAR1 was tested in non-transfected CHO cells in the same assay as above.
row,Compound,EC50 [µM]
1,"O=C(NCCCS(=O)(=O)O)c1cc(Cl)c(Oc2ccncc2C(=O)N2CCN(C3CC3)c3ccccc32)cc1Cl [Example 37, 3-{2,5-Dichloro-4-[3-(4-cyclopropyl-3,4-dihydro-2H-quinoxaline-1-carbonyl)-pyridin-4-yloxy]-benzoylamino}-propane-1-sulfonic acid]",0.9
2,"CCOC(=O)CCNC(=O)c1cc(Cl)c(Oc2ccncc2C(=O)N2CCN(C3CC3)c3ccccc32)cc1Cl [Example 33, 3-{2,5-Dichloro-4-[3-(4-cyclopropyl-3,4-dihydro-2H-quinoxaline-1-carbonyl)-pyridin-4-yloxy]-benzoylamino}-propionic acid ethyl ester]",0.02
3,"O=C(NC(CO)CO)c1cc(Cl)c(Oc2ccncc2C(=O)N2CCN(C3CC3)c3ccccc32)cc1Cl [Example 51, 2,5-Dichloro-4-[3-(4-cyclopropyl-3,4-dihydro-2H-quinoxaline-1-carbonyl)-pyridin-4-yloxy]-N-(2-hydroxy-1-hydroxymethyl-ethyl)-benzamide]",0.3
4,"COC(=O)CCC(CCC(=O)OC)NC(=O)c1cc(Cl)c(Oc2ccncc2C(=O)N2CCN(C3CC3)c3ccccc32)cc1Cl [Example 54, 4-{2,5-Dichloro-4-[3-(4-cyclopropyl-3,4-dihydro-2H-quinoxaline-1-carbonyl)-pyridin-4-yloxy]-benzoylamino}-heptanedioic acid dimethyl ester]",0.3
5,"Cc1cc(Oc2cc(Cl)c(C(=O)NCCC(=O)O)cc2Cl)c(C(=O)N2CCN(C3CC3)c3ccccc32)cn1 [Example 68, 3-{2,5-Dichloro-4-[5-(4-cyclopropyl-3,4-dihydro-2H-quinoxaline-1-carbonyl)-2-methyl-pyridin-4-yloxy]-benzoylamino}-propionic acid]",0.2
6,"Cc1cc(Oc2cc(Cl)c(Br)cc2Cl)c(C(=O)N2CCN(C3CC3)c3ccccc32)cn1 [Example 64, [4-(4-Bromo-2,5-dichloro-phenoxy)-6-methyl-pyridin-3-yl]-(4-cyclopropyl-3,4-dihydro-2H-quinoxalin-1-yl)-methanone]",0.02
7,"COc1cc(F)c(F)cc1N(C)C(=O)c1cnccc1Oc1cc(Cl)ccc1Cl [Example 19, 4-(2,5-Dichloro-phenoxy)-N-(4,5-difluoro-2-methoxy-phenyl)-N-methyl-nicotinamide]",0.1
8,"CNc1cc(F)c(F)cc1N(C)C(=O)c1cnccc1Oc1cc(Cl)ccc1Cl [Example 21, 4-(2,5-Dichloro-phenoxy)-N-(4,5-difluoro-2-methylamino-phenyl)-N-methyl-nicotinamide]",0.4
9,"COC(=O)CNC(=O)c1cc(Cl)c(Oc2cc(C)ncc2C(=O)N2CCN(C3CC3)c3ccccc32)cc1Cl [Example 69, {2,5-Dichloro-4-[5-(4-cyclopropyl-3,4-dihydro-2H-quinoxaline-1-carbonyl)-2-methyl-pyridin-4-yloxy]-benzoylamino}-acetic acid methyl ester]",0.04
10,"O=C(Nc1nncs1)c1cc(Cl)c(Oc2ccncc2C(=O)N2CCN(C3CC3)c3ccccc32)cc1Cl [Example 48, 2,5-Dichloro-4-[3-(4-cyclopropyl-3,4-dihydro-2H-quinoxaline-1-carbonyl)-pyridin-4-yloxy]-N-[1,3,4]thiadiazol-2-yl-benzamide]",0.2
11,"CN(C)c1ccc(Cl)cc1N(C)C(=O)c1cnccc1Oc1cc(Cl)ccc1Cl [Example 20, N-(5-Chloro-2-dimethylamino-phenyl)-4-(2,5-dichloro-phenoxy)-N-methyl-nicotinamide]",0.4
12,"NC(=O)CCNC(=O)c1cc(Cl)c(Oc2ccncc2C(=O)N2CCN(C3CC3)c3ccccc32)cc1Cl [Example 53, N-(2-Carbamoyl-ethyl)-2,5-dichloro-4-[3-(4-cyclopropyl-3,4-dihydro-2H-quinoxaline-1-carbonyl)-pyridin-4-yloxy]-benzamide]",0.1
13,"O=C(NCc1nnn[nH]1)c1cc(Cl)c(Oc2ccncc2C(=O)N2CCN(C3CC3)c3ccccc32)cc1Cl [Example 39, 2,5-Dichloro-4-[3-(4-cyclopropyl-3,4-dihydro-2H-quinoxaline-1-carbonyl)-pyridin-4-yloxy]-N-(1H-tetrazol-5-ylmethyl)-benzamide]",0.4
14,"O=C(NCCS(=O)(=O)O)c1cc(Cl)c(Oc2ccncc2C(=O)N2CCN(C3CC3)c3ccccc32)cc1Cl [Example 35, 2-{2,5-Dichloro-4-[3-(4-cyclopropyl-3,4-dihydro-2H-quinoxaline-1-carbonyl)-pyridin-4-yloxy]-benzoylamino}-ethanesulfonic acid]",0.1
15,"Cc1cc(Oc2cc(Cl)c(C(=O)NCC(=O)O)cc2Cl)c(C(=O)N2CCN(C3CC3)c3ccccc32)cn1 [Example 70, {2,5-Dichloro-4-[5-(4-cyclopropyl-3,4-dihydro-2H-quinoxaline-1-carbonyl)-2-methyl-pyridin-4-yloxy]-benzoylamino}-acetic acid]",0.4
16,"CCOC(=O)CCNC(=O)c1cc(Cl)c(Oc2cc(C)ncc2C(=O)N2CCN(C3CC3)c3ccccc32)cc1Cl [Example 67, 3-{2,5-Dichloro-4-[5-(4-cyclopropyl-3,4-dihydro-2H-quinoxaline-1-carbonyl)-2-methyl-pyridin-4-yloxy]-benzoylamino}-propionic acid ethyl ester]",0.02
17,"O=C(Nc1cccc2c1NCCC2)c1cnccc1Oc1cc(Cl)ccc1Cl [Example 22, 4-(2,5-Dichloro-phenoxy)-N-(1,2,3,4-tetrahydro-quinolin-8-yl)-nicotinamide]",0.9
18,"O=C(O)c1ccc(NC(=O)c2cc(Cl)c(Oc3ccncc3C(=O)N3CCN(C4CC4)c4ccccc43)cc2Cl)cc1 [Example 44, 4-{2,5-Dichloro-4-[3-(4-cyclopropyl-3,4-dihydro-2H-quinoxaline-1-carbonyl)-pyridin-4-yloxy]-benzoylamino}-benzoic acid]",0.02
19,"COC(=O)c1cc(Cl)c(Oc2cc(C)ncc2C(=O)N2CCN(C3CC3)c3ccccc32)cc1Cl [Example 65, 2,5-Dichloro-4-[5-(4-cyclopropyl-3,4-dihydro-2H-quinoxaline-1-carbonyl)-2-methyl-pyridin-4-yloxy]-benzoic acid methyl ester]",0.02

# Second part, the molecule after the results:
row,EC50 [µM],Compound
1,0.001,"Cc1cc(Oc2cc(Cl)ccc2Cl)c(C(=O)N2CCN(C3CC3)c3ccccc32)cn1 [Example 63, (4-Cyclopropyl-3,4-dihydro-2H-quinoxalin-1-yl)-[4-(2,5-dichloro-phenoxy)-6-methyl-pyridin-3-yl]-methanone]"
2,0.05,"Cc1cc(Oc2cc(Cl)ccc2Cl)c(C(=O)N2CCN(C3CC3)c3ccccc32)c(Cl)n1 [Example 73, [2-Chloro-4-(2,5-dichloro-phenoxy)-6-methyl-pyridin-3-yl]-(4-cyclopropyl-3,4-dihydro-2H-quinoxalin-1-yl)-methanone]"
3,0.3,"O=C(c1cncnc1Oc1cc(Cl)ccc1Cl)N1CCNc2ccccc21 [Example 78, [4-(2,5-Dichloro-phenoxy)-pyrimidin-5-yl]-(3,4-dihydro-2H-quinoxalin-1-yl)-methanone]"
4,0.01,"NC(=O)c1cc(Cl)c(Oc2ccncc2C(=O)N2CCN(C3CC3)c3ccccc32)cc1Cl [Example 52, 2,5-Dichloro-4-[3-(4-cyclopropyl-3,4-dihydro-2H-quinoxaline-1-carbonyl)-pyridin-4-yloxy]-benzamide]"
5,1.9,"CN(C(=O)c1cnccc1Oc1cc(Cl)ccc1Cl)c1ccccc1N1CCCCC1 [Example 17, 4-(2,5-Dichloro-phenoxy)-N-methyl-N-(2-piperidin-1-yl-phenyl)-nicotinamide]"
6,0.003,"CN1CCN(C(=O)c2cnccc2Oc2cc(Cl)ccc2Cl)c2ccccc21 [Example 4, [4-(2,5-Dichloro-phenoxy)-pyridin-3-yl]-(4-methyl-3,4-dihydro-2H-quinoxalin-1-yl)-methanone]"
7,0.1,"O=C(c1cnccc1Oc1cc(Cl)ccc1Cl)N1CCNc2ccccc21 [Example 3, [4-(2,5-Dichloro-phenoxy)-pyridin-3-yl]-(3,4-dihydro-2H-quinoxalin-1-yl)-methanone]"
8,0.004,"COC(=O)c1cc(Cl)c(Oc2ccncc2C(=O)N2CCN(C3CC3)c3ccccc32)cc1Cl [Example 27, 2,5-Dichloro-4-[3-(4-cyclopropyl-3,4-dihydro-2H-quinoxaline-1-carbonyl)-pyridin-4-yloxy]-benzoic acid methyl ester]"
9,0.2,"CCOC(=O)C(C)(C)Oc1cc(Cl)c(Oc2ccncc2C(=O)N2CCN(C3CC3)c3ccccc32)cc1Cl [Example 60, 2-{2,5-Dichloro-4-[3-(4-cyclopropyl-3,4-dihydro-2H-quinoxaline-1-carbonyl)-pyridin-4-yloxy]-phenoxy}-2-methyl-propionic acid ethyl ester]"
10,1.8,"CCOC(=O)C1CC1CN1CCN(C(=O)c2cnccc2Oc2cc(Cl)ccc2Cl)c2ccccc21 (centres unmarked) [Example 5, 2-{4-[4-(2,5-Dichloro-phenoxy)-pyridine-3-carbonyl]-3,4-dihydro-2H-quinoxalin-1-ylmethyl}-cyclopropanecarboxylic acid ethyl ester]"
